From US9481648B2, “Kinase inhibitors” (Respivert Limited, priority 2013, dated 2016)

What follows are compounds tested against GSK 3α (Homo sapiens (Human), UniProt P49840) (assay: GSK 3α enzyme inhibition (FRET, Z-LYTE; Method 2)). Conditions: read-out: IC50 Values for Enzyme Inhibition GSK3α.
Sequence of GSK 3α (P49840 whole entry): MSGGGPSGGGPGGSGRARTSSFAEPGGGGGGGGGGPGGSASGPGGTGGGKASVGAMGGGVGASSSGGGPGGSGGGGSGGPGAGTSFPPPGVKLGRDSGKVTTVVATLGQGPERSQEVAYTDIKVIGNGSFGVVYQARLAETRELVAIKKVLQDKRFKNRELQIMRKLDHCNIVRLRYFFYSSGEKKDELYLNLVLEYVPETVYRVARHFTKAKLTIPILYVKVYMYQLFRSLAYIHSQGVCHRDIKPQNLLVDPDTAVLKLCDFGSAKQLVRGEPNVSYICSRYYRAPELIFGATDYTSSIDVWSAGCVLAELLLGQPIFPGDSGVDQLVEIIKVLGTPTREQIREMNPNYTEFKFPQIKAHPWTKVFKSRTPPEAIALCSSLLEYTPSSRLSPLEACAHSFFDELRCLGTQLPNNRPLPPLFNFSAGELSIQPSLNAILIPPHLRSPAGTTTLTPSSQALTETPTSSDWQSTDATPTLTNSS
Format: biochemical
Experimental: The enzyme inhibitory activities of compounds disclosed herein are determined by FRET using synthetic peptides labelled with both donor and acceptor fluorophores (Z-LYTE, Invitrogen Ltd., Paisley, UK).
The inhibitory activities of compounds of the invention against the GSK 3α enzyme isoform (Invitrogen), are evaluated by determining the level of activation I phosphorylation of the target peptide. The GSK3-α protein (500 ng/mL, 2.5 μL) is mixed with the test compound (2.5 μL at either 4 μg/mL, 0.4 μg/mL, 0.04 μg/mL, or 0.004 μg/mL) for 2 hr at RT. The FRET peptide (8 μM, 2.5 μL), which is a phosphorylation target for GSK3α, and ATP (40 μM, 2.5 μL) are then added to the enzyme\compound mixture and the resulting mixture incubated for 1 hr. Development reagent (protease, 5 μL) is added for 1 hr prior to detection in a fluorescence microplate reader (Varioskan® Flash, ThermoFisher Scientific).
In all cases, the site-specific protease cleaves non-phosphorylated peptide only and eliminates the FRET signal. Phosphorylation levels of each reaction are calculated using the ratio of coumarin emission (donor) over fluorescein emission (acceptor), for which high ratios indicate high phosphorylation and low ratios indicate low phosphorylation levels.
This method follows the same steps as Method 1 above, but utilises a shorter period of mixing of the test compound (105 minutes instead of 2 hours) with the GSK3-α protein. In addition, the concentrations of test compound employed are either 10 μg/mL, 1 μg/mL, 0.1 μg/mL, or 0.01 μg/mL
COc1c(NC(=O)Nc2ccc(Oc3ccnc(Nc4ccccc4)c3)c(F)c2F)cc(C(C)(C)C)cc1C(=O)NC1COC1 [Example 82, 5-(tert-Butyl)-3-(3-(2,3-difluoro-4-((2-(phenylamino)pyridin-4-yl)oxy)phenyl)ureido)-2-methoxy-N-(oxetan-3-yl)benzamide] showed an IC50 of 0.182 µM.
COc1c(NC(=O)Nc2ccc(Oc3ccnc(Nc4ccccc4)c3)c3ccccc23)cc(C(C)(C)C)cc1NS(=O)(=O)N1CCOCC1 [83(f), N-(5-(tert-butyl)-2-methoxy-3-(3-(4-((2-(phenylamino)pyridin-4-yl)oxy)naphthalen-1-yl)ureido)phenyl)morpholine-4-sulfonamide] was tested, and the IC50 was 14.4 µM.
COCCOCCOCCOc1cc(Nc2nccc(Oc3ccc(NC(=O)Nc4cc(C(C)(C)C)cc(Nc5ncccn5)c4OC)c4ccccc34)n2)cc(OC)c1 [Example 28, 1-(5-(tert-Butyl)-2-methoxy-3-(pyrimidin-2-ylamino)phenyl)-3-(4-((2-((3-methoxy-5-(2-(2-(2-methoxyethoxy)ethoxy)ethoxy)phenyl)amino)pyrimidin-4-yl)oxy)naphthalen-1-yl)urea] showed an IC50 of 3.21 µM.
COCCOCCOCCOc1cc(Nc2nccc(Oc3ccc(NC(=O)Nc4cc(N5CCOCC5)ccc4OC)c4ccccc34)n2)cc(OC)c1 [Example 12, 1-(4-((2-((3-Methoxy-5-(2-(2-(2-methoxyethoxy)ethoxy)ethoxy)phenyl)amino)-pyrmidin-4-yl)oxy)naphthalen-1-yl)-3-(2-methoxy-5-morpholinophenyl)urea] gave an IC50 of 11.3 µM.
Work on COCCOCCOCCOc1cc(Nc2cc(Oc3ccc(NC(=O)Nc4cc(C(C)(C)C)cc(C(=O)NCCN)c4OC)c4ccccc34)ccn2)cc(OC)c1 [83(g), N-(2-aminoethyl)-5-(tert-butyl)-2-methoxy-3-(3-(4-((2-((3-methoxy-5-(2-(2-(2-methoxy-ethoxy)ethoxy)ethoxy)phenyl)amino)pyridin-4-yl)oxy)naphthalen-1-yl)ureido)benzamide] yielded an IC50 of 2.21 µM.
Work on COc1cc(Nc2nccc(Oc3ccc(NC(=O)Nc4cc(C(C)(C)C)cc(NS(C)(=O)=O)c4OC)c4ccccc34)n2)cc(C(=O)NCCOCCOCCC(=O)O)c1 [Example 26] yielded an IC50 of 0.051 µM.
Compound C#Cc1cc(Nc2nccc(Oc3ccc(NC(=O)Nc4cc(C(C)(C)C)cc(C(=O)NC)c4OC)c4ccccc34)n2)cc(C(=O)N[C@H](C)CN2CCOCC2)c1 [Example 61, (R)-5-(tert-Butyl)-3-(3-(4-((2-((3-ethynyl-5-((1-morpholinopropan-2-yl)carbamoyl)phenyl)amino)pyrimidin-4-yl)oxy)naphthalen-1-yl)ureido)-2-methoxy-N-methylbenzamide] has an IC50 of 0.372 µM.
With COc1cc(CO)cc(Nc2cc(Oc3ccc(NC(=O)Nc4cc(C(C)(C)C)cc(NS(C)(=O)=O)c4OC)c4ccccc34)ccn2)c1 [84(f), 1-[5-tert-Butyl-3-(methanesulfonamido)-2-methoxyphenyl]-3-[4-[[2-[3-(hydroxymethyl)-5-methoxyanilino]-4-pyridyl]oxy]-1-naphthyl]urea] the IC50 was 3.4 µM.
For COCCOCCOCCOc1cc(Nc2nccc(Oc3ccc(NC(=O)Nc4cc(C(C)(C)C)cc(C(=O)NCC(=O)O)c4OC)c4ccccc34)n2)cc(OC)c1 [Example 44, 2-(5-(tert-Butyl)-2-methoxy-3-(3-(4-((2-((3-methoxy-5-(2-(2-(2-methoxyethoxy)ethoxy)-ethoxy)phenyl)amino)pyrimidin-4-yl)oxy)naphthalen-1-yl)ureido)benzamido)acetic acid], the IC50 was 0.08 µM.
COCCOCCOCCOc1cc(Nc2nccc(Oc3ccc(NC(=O)Nc4cc(C(C)(C)C)ccc4OC)c4ccccc34)n2)cc(OC)c1 [Example 8, 1-(5-(tert-Butyl)-2-methoxhenv)-3-(4-((2-((3-methoxy-5-(2-(2-(2-methoxyethoxy)ethoxy)-ethoxy)phenyl)amino)pyrimidin-4-yl)oxy)naphthalen-1-yl)urea] was tested, and the IC50 was 9.94 µM.
In the case of COc1cc(Nc2nccc(Oc3ccc(NC(=O)Nc4cc(C(C)(C)C)cc(NS(C)(=O)=O)c4OC)c4ccccc34)n2)cc(OCCOCCC(=O)O)c1 [Example 31, 3-(2-(3-((4-((4-(3-(5-(tert-Butyl)-2-methoxy-3-(methylsulfonamido)phenyl)ureido)-naphthalen-1-yl)oxy)pyrimidin-2-yl)amino)-5-methoxyphenoxy)ethoxy)propanoic acid], the IC50 is reported as 0.135 µM.
In the case of COCCOCCOCCOc1cc(Nc2nccc(Oc3ccc(NC(=O)Nc4cc(C(C)(C)C)cc5[nH]c(=O)oc45)c4ccccc34)n2)cc(OC)c1 [Example 63, 1-(5-(tert-Butyl)-2-oxo-2,3-dihydrobenzo[d]oxazol-7-yl)-3-(4-((2-((3-methoxy-5-(2-(2-(2-methoxyethoxy)ethoxy)ethoxy)phenyl)amino)pyrimidin-4-yl)oxy)naphthalen-1-yl)urea], the IC50 is reported as 0.829 µM.
In the case of CCNC(=O)c1cc(C(C)(C)C)cc(NC(=O)Nc2ccc(Oc3ccnc(Nc4cc(OC)cc(OCCOCCOCCOC)c4)n3)c3ccccc23)c1OC [Example 41, 5-(tert-Butyl)-N-ethyl-2-methoxy-3-(3-(4-((2-((3-methoxy-5-(2-(2-(2-methoxyethoxy)-ethoxy)ethoxy)phenyl)amino)pyrimidin-4-yl)oxy)naphthalen-1-yl)ureido)benzamide], the IC50 is reported as 0.446 µM.
In the case of COc1cc(Nc2cc(Oc3ccc(NC(=O)Nc4cc(C(C)(C)C)cc(NS(C)(=O)=O)c4OC)c4ccccc34)ccn2)cc(C(=O)NCCN2CCCC2)c1 [83(d), 3-((4-((4-(3-(5-(tert-butyl)-2-methoxy-3-(methysulfonamido)phenyl)ureido)naphthalen-1-yl)oxy)pyridin-2-yl)amino)-5-methoxy-N-(2-(pyrrolidin-1-yl)ethyl)benzamide], the IC50 is reported as 1.02 µM.
Work on CNC(=O)c1cc(N2CCOCC2)cc(NC(=O)Nc2ccc(Oc3ccnc(Nc4cc(OC)cc(OCCOCCOCCOC)c4)n3)c3ccccc23)c1OC [Example 32, 2-Methoxy-3-(3-(4-((2-((3-methoxy-5(2-(2-(2-methoxyethoxy)ethoxy)ethoxy)phenyl)-amino)pyrimidin-4-yl)oxy)naphthalen-1-yl)ureido)-N-methyl-5-morpholinobenzamide] yielded an IC50 of 0.629 µM.
With COCCOCCOCCOc1cc(Nc2nccc(Oc3ccc(NC(=O)Nc4cc(C(C)(C)C)cc(C(=O)O)c4OC)c4ccccc34)n2)cc(OC)c1 [Example 21, 5-(tert-Butyl)-2-methoxy-3-(3-(4-((2-((3-methoxy-5-(2-(2-(2-methoxyethoxy)ethoxy)-ethoxy)phenyl)amino)pyrimidin-4-yl)oxy)naphthalen-1-yl)ureido)benzoic acid] the IC50 was 1.63 µM.
C#Cc1cc(Nc2nccc(Oc3ccc(NC(=O)Nc4cc(C(C)(C)C)cc(C(N)=O)c4OC)c4ccccc34)n2)cc(C(=O)NCCN2CCOCC2)c1 [85(g), 5-tert-Butyl-3-[[4-[2-[3-ethynyl-5-(2-morpholinoethylcarbamoyl)anilino]-pyrimidin-4-yl]oxy-1-naphthyl]carbamoylamino]-2-methoxy-benzamide] was tested, and the IC50 was 0.437 µM.
COCCOCCOCCOc1cc(Nc2nccc(Oc3ccc(NC(=O)Nc4cc(C(C)(C)C)cc(C(=O)N(C)C)c4OC)c4ccccc34)n2)cc(OC)c1 [Example 19, 5-(tert-yl)-)-2-methoxy-3-(3-(4-((2-((3-methoxy-5-(2-(2-(2-methoxyethoxy)ethoxy)-ethoxy)phenyl)amino)pyrimidin-4-yl)oxy)naphthalen-1-yl)ureido-N,N-dimethylbenzamide] gave an IC50 of 4.43 µM.
In the case of COCCOCCOCCOc1cc(Nc2nccc(Oc3ccc(NC(=O)Nc4cc(C(C)(C)C)cc(NS(=O)(=O)C5CCCCC5)c4OC)c4ccccc34)n2)cc(OC)c1 [Example 72, N-(5-(tert-Butyl)-2-methoxy-3-(3-(4-((2-((3-methoxy-5-(2-(2-(2-methoxyethoxy)ethoxy)-ethoxy)phenyl)amino)pyrimidin-4-yl)oxy)naphthalen-1-yl)ureido)phenyl)cyclohexane-sulfonamide], the IC50 is reported as 11.3 µM.
